Results from BindingDB's records for doi:10.1016/j.bioorg.2011.05.001 (Medical University of Lodz, 2011).
Where a name gives a salt, the structure may show the parent alone.

Assays:
[1] = biological target: Carboxylic ester hydrolase (Equus caballus, UniProt Q9N1N9); assay: Enzyme Assay
From the text: (§1) Enzyme activity using acetylcholinesterase (AChE) and butyrylcholinesterase (BChE).

Acetylcholinesterase = Acetylcholinesterase (Electrophorus electricus, UniProt O42275); assay: Enzyme Assay
From the text: as §1

Acetylcholinesterase, sequence (O42275 whole entry): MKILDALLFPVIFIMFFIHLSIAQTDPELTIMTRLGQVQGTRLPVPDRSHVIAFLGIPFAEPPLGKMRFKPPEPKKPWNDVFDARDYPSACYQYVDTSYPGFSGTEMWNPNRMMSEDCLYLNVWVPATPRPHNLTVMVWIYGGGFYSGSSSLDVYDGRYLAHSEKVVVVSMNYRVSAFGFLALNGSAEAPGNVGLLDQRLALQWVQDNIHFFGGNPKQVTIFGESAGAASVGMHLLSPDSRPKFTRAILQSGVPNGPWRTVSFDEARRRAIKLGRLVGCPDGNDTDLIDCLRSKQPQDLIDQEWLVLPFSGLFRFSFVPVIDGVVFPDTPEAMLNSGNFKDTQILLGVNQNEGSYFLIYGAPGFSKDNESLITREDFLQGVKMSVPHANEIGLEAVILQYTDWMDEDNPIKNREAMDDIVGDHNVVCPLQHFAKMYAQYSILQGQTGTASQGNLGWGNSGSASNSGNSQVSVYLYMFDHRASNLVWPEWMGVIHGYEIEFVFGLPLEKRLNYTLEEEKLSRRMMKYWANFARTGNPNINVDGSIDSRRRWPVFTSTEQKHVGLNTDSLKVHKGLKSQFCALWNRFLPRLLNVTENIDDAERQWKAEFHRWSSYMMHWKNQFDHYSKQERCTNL
Carboxylic ester hydrolase, sequence (Q9N1N9 whole entry): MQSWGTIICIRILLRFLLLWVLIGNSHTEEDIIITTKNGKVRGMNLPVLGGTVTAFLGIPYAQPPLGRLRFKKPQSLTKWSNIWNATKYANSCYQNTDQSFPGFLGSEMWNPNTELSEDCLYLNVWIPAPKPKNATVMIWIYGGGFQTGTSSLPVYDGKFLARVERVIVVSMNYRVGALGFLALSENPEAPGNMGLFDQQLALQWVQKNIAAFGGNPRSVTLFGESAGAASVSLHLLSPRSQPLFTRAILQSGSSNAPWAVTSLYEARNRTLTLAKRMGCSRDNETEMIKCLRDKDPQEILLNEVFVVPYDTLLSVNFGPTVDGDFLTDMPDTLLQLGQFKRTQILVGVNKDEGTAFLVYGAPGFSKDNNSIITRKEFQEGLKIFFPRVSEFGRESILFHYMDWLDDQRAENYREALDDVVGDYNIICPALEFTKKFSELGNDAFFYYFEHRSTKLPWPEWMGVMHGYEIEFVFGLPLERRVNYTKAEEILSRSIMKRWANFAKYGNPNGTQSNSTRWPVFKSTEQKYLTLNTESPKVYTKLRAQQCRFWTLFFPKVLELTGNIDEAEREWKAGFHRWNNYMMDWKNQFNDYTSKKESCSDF

| Structure (SMILES) | IC50 [1] [nM] | IC50 (Acetylcholinesterase) [nM] |
| --- | --- | --- |
| NNc1ccc(C(=O)NCCCCCCCNc2c3c(nc4ccccc24)CCCC3)cn1 [Nicotinamide hydrochloride analog, 6c] | 1.13 | 721 |
| NNc1ccc(C(=O)NCCCCNc2c3c(nc4ccccc24)CCCC3)cn1 [Nicotinamide hydrochloride analog, 6a] | 1.45 | 440 |
| NNc1ccc(C(=O)NCCCCCNc2c3c(nc4ccccc24)CCCC3)cn1 [Nicotinamide hydrochloride analog, 6b] | – | 308 |
